Here are results for 34 compounds from patent US20260103471A1, “CYCLIC UREA THIAZOLYL COMPOUNDS FOR TREATMENT OF HSV” (Assembly Biosciences, Inc., priority 2022, published 2026).

Structures are written as SMILES.

The subject of assay [1] is HSV-1. Briefly: HSV-1 Antiviral Assay (Vero cells, cell viability). In kind it is cell-based. The following applies: Human alphaherpesvirus 1, 96 h; Vero cells, 80 TCID50 HSV-1, 4 days, cell viability; read-out: HSV-1 EC50. A digest of the protocol:
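Vero cells (2.5×10^3/well) received 8-point 3-fold compound dilutions in 2% FBS medium (0.5% DMSO), then 80 TCID50 HSV-1. After 4 days at 37 °C, cell viability was measured by CellTiter-Glo luminescence.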

The subject of assay [2] is HSV-2 G strain. Briefly: HSV-2 Antiviral Assay (Vero cells, cell viability). The note with it: Human alphaherpesvirus 2, Vero, 120 h, Vero cells, 160 TCID50 HSV-2 G strain, 5 days, cell viability. In kind it is cell-based. A digest of the protocol:
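Antiviral readout is survival of infected Vero cells: after 5 days at 37 °C with 160 TCID50 HSV-2 G strain plus serially diluted compound (8 points, 3-fold, 0.5% DMSO), WST-8 was added for 3 h and absorbance measured at 460/620 nm. Cells seeded at 1.0×10^4 per well.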

As to `NS(=O)(=O)c1sc(N2CCCN(c3ccc(-c4cc(F)ccc4F)cc3)C2=O)nc1Cl` [Compound 171], the EC50 in assay [1] and in assay [2] was less than 0.1 µM in each case.
Regarding `Cc1nc(N2CCCN(c3ccc(-c4cc(F)cc5c4ccn5C)cc3)C2=O)sc1S(N)(=O)=O` [Compound 251], the EC50 in assay [1] and in assay [2] was less than 0.1 µM in each case.
`Cc1nc(N2CCCN(c3ccc(-c4cc(F)ccc4F)cc3)C2=O)sc1S(=O)(=O)NC1CC1` [Compound 117]: the EC50 in assay [1] and in assay [2] was less than 0.1 µM throughout.
`C#Cc1ccc(F)cc1-c1ccc(N2CCCN(c3nc(C)c(S(N)(=O)=O)s3)C2=O)cc1` [Compound 18]: the 50% effective concentration (EC50) in assay [1] and in assay [2] was less than 0.1 µM in each case.
Take `Cc1nc(N2CC3(CC3)CN(c3ccc(-c4cc(F)ccc4F)cc3)C2=O)sc1[S@@](C)(=N)=O` (single isomer, unassigned) [Compound 157]: the EC50 (in general, the midpoint of the concentration-response curve) in assay [1] is 0.1 to 1 µM; in assay [2], less than 0.1 µM.
In the same order, the values of `Cc1nc(N2CCCN(c3cccc(-c4ccccn4)c3)C2=O)sc1S(N)(=O)=O` [Compound 4] are 0.1 to 1 µM and 0.1 to 1 µM.
The matching figures for `Cc1nc(N2CCCN(c3ccc(-c4nsc5ccccc45)cc3)C2=O)sc1S(N)(=O)=O` [Compound 310]: less than 0.1 µM and less than 0.1 µM.
In the same order, the values of `Cc1nc(N2CCCN(c3ccc(-c4cccc5c4cnn5CC(C)(C)O)cc3)C2=O)sc1S(N)(=O)=O` [Compound 60] are 1 to 5 µM and 1 to 5 µM.
Take `Cc1nc(N2CCCN(c3ccc(-c4cc(F)cc(F)c4F)cc3)C2=O)sc1S(N)(=O)=O` [Compound 7]: the EC50 in assay [1] and in assay [2] was less than 0.1 µM each time.
Regarding `Cc1nc(N2CCCN(c3ccc(-c4cccc5cnccc45)cc3)C2=O)sc1S(N)(=O)=O` [Compound 85], the EC50 in assay [1] and in assay [2] was less than 0.1 µM each time.
In the case of `Cc1nc(N2CCCN(c3ccc(-c4ccccc4F)cc3F)C2=O)sc1S(=O)(=O)NC1CC1` [Compound 131], the EC50 in assay [1] and in assay [2] was 0.1 to 1 µM in each case.
`Cc1nc(N2CCCN(c3ccc(-c4ccccn4)c(F)c3)C2=O)sc1S(N)(=O)=O` [Compound 97]: the EC50 in assay [1] and in assay [2] was less than 0.1 µM throughout.
For the compound `Cc1nc(N2CCCN(c3ccc(-c4cc(F)ccc4F)cc3)C2=O)sc1S(C)(=O)=O` [Compound 161], the EC50 in assay [1] and in assay [2] was less than 0.1 µM in each case.
`Cc1nc(N2CCCN(c3ccc(-c4ccccc4F)c(F)c3)C2=O)sc1S(N)(=O)=O` [Compound 95]: the EC50 in assay [1] and in assay [2] was 0.1 to 1 µM in each case.
As to `Cc1nc(N2CCCN(c3ccc(-c4cccc5ncsc45)cc3)C2=O)sc1S(N)(=O)=O` [Compound 67, 2-(3-(4-(Benzo[d]thiazol-7-yl)phenyl)-2-oxotetrahydropyrimidin-1(2H)-yl)-4-methylthiazole-5-sulfonamide], the concentration giving a half-maximal response (EC50) in assay [1] and in assay [2] was less than 0.1 µM each time.
On to `Cc1nc(N2CCCN(c3ccc(-c4snc5ccccc45)cc3)C2=O)sc1S(N)(=O)=O` [Compound 305], for which the EC50 in assay [1] and in assay [2] was less than 0.1 µM throughout.
Consider `Cc1nc(N2CCCN(c3ccc(-c4ccc(C#CC(C)(C)O)cc4)cc3)C2=O)sc1S(N)(=O)=O` [Compound 28], for which the concentration for a half-maximal effect (EC50) in assay [1] and in assay [2] was 1 to 5 µM in each case.
Take `Cc1nc(N2C[C@@H](C)CN(c3ccc(-c4ccccc4Cl)cc3)C2=O)sc1S(N)(=O)=O` (single isomer, unassigned) [Compound 323]: the half-maximal effective concentration (EC50) in assay [1] and in assay [2] was less than 0.1 µM each time.
For the compound `Cc1nc(N2CCCN(c3ccc(-c4cc(F)ccc4F)cc3)C2=O)sc1[S@](C)(=N)=O` (single isomer, unassigned) [Compound 141], the EC50 in assay [1] and in assay [2] was less than 0.1 µM each time.
On to `CNS(=O)(=O)c1sc(N2CCCN(c3ccc(-c4cccc(N)n4)cc3)C2=O)nc1C` [Compound 123], for which the EC50 in assay [1] and in assay [2] was less than 0.1 µM throughout.
For `Cc1nc(N2CCCN(c3ccc(-c4cccc5[nH]cnc45)cc3)C2=O)sc1S(N)(=O)=O` [Compound 74], the EC50 in assay [1] and in assay [2] was 0.1 to 1 µM throughout.
For `COCc1ccc(F)cc1-c1ccc(N2CCCN(c3nc(C)c(S(N)(=O)=O)s3)C2=O)cc1` [Compound 209], the EC50 in assay [1] and in assay [2] was less than 0.1 µM throughout.
Turning to `Cc1nc(N2CC3(COC3)CN(c3ccc(-c4cc(F)ccc4F)cc3)C2=O)sc1S(N)(=O)=O` [Compound 339, 2-(8-(2′,5′-difluoro-[1,1′-biphenyl]-4-yl)-7-oxo-2-oxa-6,8-diazaspiro[3.5]nonan-6-yl)-4-methylthiazole-5-sulfonamide], the EC50 in assay [1] and in assay [2] was less than 0.1 µM in each case.
Take `Cc1nc(N2CCCN(c3ccc(-c4ncco4)cc3)C2=O)sc1S(N)(=O)=O` [Compound 41]: the concentration for a half-maximal effect (EC50) in assay [1] and in assay [2] was 0.1 to 1 µM in each case.
Regarding `Cc1nc(N2CCCN(c3ccc(-c4nc5ncccc5s4)cc3)C2=O)sc1S(N)(=O)=O` [Compound 89], the EC50 in assay [1] and in assay [2] was 1 to 5 µM in each case.
Turning to `Cc1nc(N2CCCN(c3ccc(-c4ccc5ncn(C)c5c4)cc3)C2=O)sc1S(N)(=O)=O` [Compound 75], the EC50 in assay [1] and in assay [2] was 1 to 5 µM throughout.
Turning to `Cc1nc(N2CCCN(c3ccc(-c4nccc5ccccc45)cc3)C2=O)sc1S(N)(=O)=O` [Compound 86], the concentration giving a half-maximal response (EC50) in assay [1] and in assay [2] was 0.1 to 1 µM throughout.
In the case of `Cc1nc(N2CC(C(C)(C)F)CN(c3ccc(-c4cc(F)ccc4F)cc3)C2=O)sc1S(N)(=O)=O` (centres unmarked) [Compound 369], the EC50 in assay [1] and in assay [2] was less than 0.1 µM each time.
`Cc1nc(N2CCCCN(c3ccc(-c4cc(F)ccc4F)cc3)C2=O)sc1S(N)(=O)=O` [Compound 101, 2-(3-(2′,5′-Difluoro-[1,1′-biphenyl]-4-yl)-2-oxo-1,3-diazepan-1-yl)-4-methylthiazole-5-sulfonamide]: the EC50 in assay [1] and in assay [2] was less than 0.1 µM throughout.
In the case of `Cc1nc(N2CCCN(c3ccc(-c4cc(F)ccn4)cc3)C2=O)sc1S(N)(=O)=O` [Compound 36], the EC50 in assay [1] and in assay [2] was less than 0.1 µM in each case.
`CNS(=O)(=O)c1sc(N2CCCN(c3ccc(-c4cc(F)ccc4F)cc3)C2=O)nc1C` [Compound 116, 2-(3-(2′,5′-Difluoro-[1,1′-biphenyl]-4-yl)-2-oxotetrahydropyrimidin-1(2H)-yl)-N,4-dimethylthiazole-5-sulfonamide]: the concentration for a half-maximal effect (EC50) in assay [1] and in assay [2] was less than 0.1 µM throughout.
On to `Cc1nc(N2CCCN(c3ccc(-c4ccncc4)cc3)C2=O)sc1S(N)(=O)=O` [Compound 3], for which the concentration giving a half-maximal response (EC50) in assay [1] and in assay [2] was 0.1 to 1 µM in each case.
In the case of `O=C1N(c2ccc(-c3cc(F)ccc3F)cc2)CCCN1c1ncc(S(=O)(=O)C2CC2)s1` [Compound 166], the half-maximal effective concentration (EC50) in assay [1] and in assay [2] was 0.1 to 1 µM each time.
For `C#Cc1ccc(F)c(-c2ccc(N3CCCN(c4nc(C)c(S(N)(=O)=O)s4)C3=O)cc2)c1` [Compound 17, 2-(3-(5′-Ethynyl-2′-fluoro-[1,1′-biphenyl]-4-yl)-2-oxotetrahydropyrimidin-1(2H)-yl)-4-methylthiazole-5-sulfonamide], the EC50 in assay [1] and in assay [2] was less than 0.1 µM throughout.
